What was measured:
[1] = target: Kelch domain of human KEAP1 (321-624 aa) (Homo sapiens (Human), UniProt Q14145); assay: KEAP1 KELCH ThermoFluor binding assay; details: KEAP Kelch […], 1,8-ANS, pH 7.0, average of results obtained, read-out: Tf Kd;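 note: Ligand-induced melting temperature shift of E. coli-expressed KEAP1 Kelch protein, Kd estimated from concentration-response curves of ΔTm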
[2] = test system: Glo-Response ARE-luc2P HEK293 cell line; assay: ARE luciferase reporter cell-based assay; details: Homo sapiens, HEK293, 24 h, average of results obtained;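 note: luciferase signal tracks Nrf2 activation of the ARE once compounds disrupt KEAP1-Nrf2 binding, read with One-Glo reagent, DMSO serving as low control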

Kelch domain of human KEAP1 (321-624 aa), sequence (Q14145 321-624): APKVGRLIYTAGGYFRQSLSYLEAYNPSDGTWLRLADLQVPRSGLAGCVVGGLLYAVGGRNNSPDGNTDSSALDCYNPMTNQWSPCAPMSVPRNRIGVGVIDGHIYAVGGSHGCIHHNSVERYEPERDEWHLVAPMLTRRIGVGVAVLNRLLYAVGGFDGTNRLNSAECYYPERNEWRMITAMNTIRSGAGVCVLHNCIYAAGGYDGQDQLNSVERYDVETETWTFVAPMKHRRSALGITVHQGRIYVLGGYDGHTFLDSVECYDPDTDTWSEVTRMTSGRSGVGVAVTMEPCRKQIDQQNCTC

Row | SMILES | Kd [1] [nM] | EC50 [2] [nM]
1 | Cc1cnc2c(c1)S(=O)(=O)N(Cc1cc([C@H](c3ccn4c(C(F)(F)F)nnc4c3C)C(C)(C)C(=O)O)ccc1C)CC1(CC1)O2 (single isomer, unassigned) [Example 315, (*R)-2,2-Dimethyl-3-(4-methyl-3-((8′-methyl-1′,1′-dioxidospiro[cyclopropane-1,4′-pyrido[2,3-b][1,4,5]oxathiazepin]-2′(3′H)-yl)methyl)phenyl)-3-(8-methyl-3-(trifluoromethyl)-[1,2,4]triazolo[4,3-a]pyridin-7-yl)propanoic Acid] | 287 | 148
2 | Cc1ccc([C@H](c2ccn3c(C(F)(F)F)nnc3c2C)C(C)(C)C(=O)O)cc1CN1CC2(CC2)Oc2ncccc2S1(=O)=O (single isomer, unassigned) [Example 318, (*R)-3-(3-((1′,1′-Dioxidospiro[cyclopropane-1,4′-pyrido[2,3-b][1,4,5]oxathiazepin]-2′(3′H)-yl)methyl)-4-methylphenyl)-2,2-dimethyl-3-(8-methyl-3-(trifluoromethyl)-[1,2,4]triazolo[4,3-a]pyridin-7-yl)propanoic Acid] | 1990 | 598
3 | Cc1ccc([C@@H](c2ccn3c(C(F)(F)F)nnc3c2)C(C)(C)C(=O)O)cc1CN1CC2(CCOCC2)Oc2ncccc2S1(=O)=O (single isomer, unassigned) [Example 320, (*S)-3-(3-((1′,1′-Dioxido-2,3,5,6-tetrahydrospiro[pyran-4,4′-pyrido[2,3-b][1,4,5]oxathiazepin]-2′(3′H)-yl)methyl)-4-methylphenyl)-2,2-dimethyl-3-(3-(trifluoromethyl)-[1,2,4]triazolo[4,3-a]pyridin-7-yl)propanoic Acid] | 831 | 19400
4 | Cc1cnc2c(c1)S(=O)(=O)N(Cc1cc([C@@H](c3ccn4c(C(F)(F)F)nnc4c3)C(C)(C)C(=O)O)ccc1C)CC1(CC1)O2 (single isomer, unassigned) [Example 323, (*S)-2,2-Dimethyl-3-(4-methyl-3-((8′-methyl-1′,1′-dioxidospiro[cyclopropane-1,4′-pyrido[2,3-b][1,4,5]oxathiazepin]-2′(3′H)-yl)methyl)phenyl)-3-(3-(trifluoromethyl)-[1,2,4]triazolo[4,3-a]pyridin-7-yl)propanoic Acid] | 298 | 16200
5 | Cc1cnc2c(c1)S(=O)(=O)N(Cc1cc([C@H](c3ccn4c(C(F)(F)F)nnc4c3)C(C)(C)C(=O)O)ccc1C)CC1(CC1)O2 (single isomer, unassigned) [Example 324, (*R)-2,2-Dimethyl-3-(4-methyl-3-((8′-methyl-1′,1′-dioxidospiro[cyclopropane-1,4′-pyrido[2,3-b][1,4,5]oxathiazepin]-2′(3′H)-yl)methyl)phenyl)-3-(3-(trifluoromethyl)-[1,2,4]triazolo[4,3-a]pyridin-7-yl)propanoic Acid] | < 1 | 16.7
6 | Cc1ccc([C@@H](c2ccn3c(C(F)(F)F)nnc3c2C)C(C)(C)C(=O)O)nc1CN1CC2(CCOCC2)Oc2nc(OCCN3CCOCC3)ccc2S1(=O)=O (single isomer, unassigned) [Example 325, (*S)-2,2-Dimethyl-3-(8-methyl-3-(trifluoromethyl)-[1,2,4]triazolo[4,3-a]pyridin-7-yl)-3-(5-methyl-6-((7′-(2-morpholinoethoxy)-1′,1′-dioxido-2,3,5,6-tetrahydrospiro[pyran-4,4′-pyrido[2,3-b][1,4,5]oxathiazepin]-2′(3′H)-yl)methyl)pyridin-2-yl)propanoic Acid] | < 1 | 17.2
7 | Cc1ccc([C@H](c2ccn3c(C(F)(F)F)nnc3c2C)C(C)(C)C(=O)O)nc1CN1CC2(CCOCC2)Oc2nc(OCCN3CCOCC3)ccc2S1(=O)=O (single isomer, unassigned) [Example 326, (*R)-2,2-Dimethyl-3-(8-methyl-3-(trifluoromethyl)-[1,2,4]triazolo[4,3-a]pyridin-7-yl)-3-(5-methyl-6-((7′-(2-morpholinoethoxy)-1′,1′-dioxido-2,3,5,6-tetrahydrospiro[pyran-4,4′-pyrido[2,3-b][1,4,5]oxathiazepin]-2′(3′H)-yl)methyl)pyridin-2-yl)propanoic Acid] | 3240 | 4600
8 | Cc1ccc([C@@H](c2ccc3c(nnn3CC3CC3)c2C)C(C)(C)C(=O)O)nc1CN1CC2(CCOCC2)Oc2nc(OCCN3CCOCC3)ccc2S1(=O)=O (single isomer, unassigned) [Example 328, (*S)-3-(1-(Cyclopropylmethyl)-4-methyl-1H-benzo[d][1,2,3]triazol-5-yl)-2,2-dimethyl-3-(5-methyl-6-((7′-(2-morpholinoethoxy)-1′,1′-dioxido-2,3,5,6-tetrahydrospiro[pyran-4,4′-pyrido[2,3-b][1,4,5]oxathiazepin]-2′(3′H)-yl)methyl)pyridin-2-yl)propanoic Acid] | < 1 | 3.3

Now from value to molecule, other results behind:

Row | Kd [1] [nM] | SMILES | EC50 [2] [nM]
9 | < 1 | Cc1ccc([C@H](CC(=O)O)c2ccn3c(C(F)(F)F)nnc3c2C)cc1CN1CC2(CC2)Oc2ncc(F)cc2S1(=O)=O (single isomer, unassigned) [Example 311, (*S)-3-(3-((8′-Fluoro-1′,1′-dioxidospiro[cyclopropane-1,4′-pyrido[2,3-b][1,4,5]oxathiazepin]-2′(3′H)-yl)methyl)-4-methylphenyl)-3-(8-methyl-3-(trifluoromethyl)-[1,2,4]triazolo[4,3-a]pyridin-7-yl)propanoic Acid] | 9.3
10 | < 1 | Cc1cnc2c(c1)S(=O)(=O)N(Cc1cc([C@@H](c3ccn4c(C(F)(F)F)nnc4c3C)C(C)(C)C(=O)O)ccc1C)CC1(CC1)O2 (single isomer, unassigned) [Example 314, (*S)-2,2-Dimethyl-3-(4-methyl-3-((8′-methyl-1′,1′-dioxidospiro[cyclopropane-1,4′-pyrido[2,3-b][1,4,5]oxathiazepin]-2′(3′H)-yl)methyl)phenyl)-3-(8-methyl-3-(trifluoromethyl)-[1,2,4]triazolo[4,3-a]pyridin-7-yl)propanoic Acid] | 1
11 | < 1 | Cc1ccc([C@@H](c2ccn3c(C(F)(F)F)nnc3c2C)C(C)(C)C(=O)O)cc1CN1CC2(CC2)Oc2ncccc2S1(=O)=O (single isomer, unassigned) [Example 317, (*S)-3-(3-((1′,1′-Dioxidospiro[cyclopropane-1,4′-pyrido[2,3-b][1,4,5]oxathiazepin]-2′(3′H)-yl)methyl)-4-methylphenyl)-2,2-dimethyl-3-(8-methyl-3-(trifluoromethyl)-[1,2,4]triazolo[4,3-a]pyridin-7-yl)propanoic Acid] | 1.9
12 | < 1 | Cc1ccc([C@H](c2ccn3c(C(F)(F)F)nnc3c2)C(C)(C)C(=O)O)cc1CN1CC2(CCOCC2)Oc2ncccc2S1(=O)=O (single isomer, unassigned) [Example 321, (*R)-3-(3-((1′,1′-Dioxido-2,3,5,6-tetrahydrospiro[pyran-4,4′-pyrido[2,3-b][1,4,5]oxathiazepin]-2′(3′H)-yl)methyl)-4-methylphenyl)-2,2-dimethyl-3-(3-(trifluoromethyl)-[1,2,4]triazolo[4,3-a]pyridin-7-yl)propanoic Acid] | 22
